This note sets out measurements from ChEMBL document CHEMBL1145489, “Isoniazid induces its own resistance in nonreplicating Mycobacterium tuberculosis” (Antimicrob Agents Chemother, 2007).

Series [1] deals with Mycobacterium tuberculosis. Put plainly: Antimicrobial activity against Mycobacterium tuberculosis H37Rv at 2 ug/ml after 1 week by […] method. The class given is functional.
Series [2] concerns Mycobacterium tuberculosis. Put plainly: Antimicrobial activity against Mycobacterium tuberculosis H37Rv at 2 ug/ml after 2 weeks by […] method. The class given is functional.
In series [3] the test system is Mycobacterium tuberculosis. As to the kind of experiment: Antimicrobial activity against Mycobacterium tuberculosis H37Rv at 2 ug/ml after 3 weeks at by […] method. The class given is functional.
Series [4] relates to Mycobacterium tuberculosis. Put plainly: Antimicrobial activity against Mycobacterium tuberculosis H37Rv at 2 ug/ml after 4 weeks by […] method. The class given is functional.
The test system of series [5] is Mycobacterium tuberculosis. Put plainly: Antimicrobial activity against Mycobacterium tuberculosis H37Rv at 0.1 ug/ml after 1 week by […] method. The class given is functional.
Series [6] has as its system Mycobacterium tuberculosis. As to the kind of experiment: Antimicrobial activity against Mycobacterium tuberculosis H37Rv at 0.1 ug/ml after 2 weeks by […] method. The class given is functional.
Series [7] relates to Mycobacterium tuberculosis. As to the kind of experiment: Antimicrobial activity against Mycobacterium tuberculosis H37Rv at 0.1 ug/ml after 3 weeks by […] method. The class given is functional.
For series [8], the system named is Mycobacterium tuberculosis. As to the kind of experiment: Antimicrobial activity against Mycobacterium tuberculosis H37Rv at 0.1 ug/ml after 4 weeks by […] method. The class given is functional.
Series [9] deals with Mycobacterium tuberculosis. Put plainly: Antimicrobial activity against Mycobacterium tuberculosis H37Rv at 0.4 ug/ml after 1 week by […] method. The class given is functional.
Series [10] has as its system Mycobacterium tuberculosis. As to the kind of experiment: Antimicrobial activity against Mycobacterium tuberculosis TB7 isolate at 0.4 ug/ml after 1 week. The class given is functional.
Series [11] concerns Mycobacterium tuberculosis. As to the kind of experiment: Antimicrobial activity against Mycobacterium tuberculosis TB7 isolate at 0.4 ug/ml after 2 weeks. The class given is functional.
In series [12] the test system is Mycobacterium tuberculosis. As to the kind of experiment: Antimicrobial activity against Mycobacterium tuberculosis TB7 isolate at 0.4 ug/ml after 3 weeks. The class given is functional.
The test system of series [13] is Mycobacterium tuberculosis. Put plainly: Antimicrobial activity against Mycobacterium tuberculosis TB7 isolate at 0.4 ug/ml after 4 weeks. The class given is functional.
Series [14] deals with Mycobacterium tuberculosis. Put plainly: Antimicrobial activity against Mycobacterium tuberculosis TB19 isolate at 0.1 ug/ml after 1 week. The class given is functional.
Series [15] relates to Mycobacterium tuberculosis. As to the kind of experiment: Antimicrobial activity against Mycobacterium tuberculosis TB19 isolate at 0.1 ug/ml after 2 weeks. The class given is functional.
Series [16] relates to Mycobacterium tuberculosis. Put plainly: Antimicrobial activity against Mycobacterium tuberculosis TB19 isolate at 0.1 ug/ml after 3 weeks. The class given is functional.
Series [17] deals with Mycobacterium tuberculosis. As to the kind of experiment: Antimicrobial activity against Mycobacterium tuberculosis TB19 isolate at 0.1 ug/ml after 4 weeks. The class given is functional.
The subject of series [18] is Mycobacterium tuberculosis. As to the kind of experiment: Antimicrobial activity against Mycobacterium tuberculosis TB19 isolate at 0.4 ug/ml after 1 week. The class given is functional.
In series [19] the test system is Mycobacterium tuberculosis. Put plainly: Antimicrobial activity against Mycobacterium tuberculosis TB19 isolate at 0.4 ug/ml after 2 weeks. The class given is functional.
Series [20] has as its system Mycobacterium tuberculosis. Put plainly: Antimicrobial activity against Mycobacterium tuberculosis TB19 isolate at 0.4 ug/ml after 3 weeks. The class given is functional.
Series [21] relates to Mycobacterium tuberculosis. Put plainly: Antimicrobial activity against Mycobacterium tuberculosis TB19 isolate at 0.4 ug/ml after 4 weeks. The class given is functional.
For series [22], the system named is Mycobacterium tuberculosis. Put plainly: Antimicrobial activity against Mycobacterium tuberculosis H37Rv at 0.4 ug/ml after 2 weeks by […] method. The class given is functional.
The test system of series [23] is Mycobacterium tuberculosis. As to the kind of experiment: Antimicrobial activity against Mycobacterium tuberculosis H37Rv at 0.4 ug/ml after 3 weeks by […] method. The class given is functional.
The test system of series [24] is Mycobacterium tuberculosis. As to the kind of experiment: Antimicrobial activity against Mycobacterium tuberculosis H37Rv at 0.4 ug/ml after 4 weeks by […] method. The class given is functional.
Series [25] concerns Mycobacterium tuberculosis. Put plainly: Antimicrobial activity against Mycobacterium tuberculosis TB7 isolate at 0.1 ug/ml after 2 weeks. The class given is functional.
Series [26] concerns Mycobacterium tuberculosis. As to the kind of experiment: Antimicrobial activity against Mycobacterium tuberculosis TB7 isolate at 0.1 ug/ml after 1 week. The class given is functional.
The test system of series [27] is Mycobacterium tuberculosis. Put plainly: Antimicrobial activity against Mycobacterium tuberculosis TB7 isolate at 0.1 ug/ml after 3 weeks. The class given is functional.
In series [28] the test system is Mycobacterium tuberculosis. Put plainly: Antimicrobial activity against Mycobacterium tuberculosis TB7 isolate at 0.1 ug/ml after 4 weeks. The class given is functional.
The subject of series [29] is Mycobacterium tuberculosis. As to the kind of experiment: Antimicrobial activity against Mycobacterium tuberculosis TB20 isolate at 0.1 ug/ml after 1 week. The class given is functional.
The test system of series [30] is Mycobacterium tuberculosis. As to the kind of experiment: Antimicrobial activity against Mycobacterium tuberculosis TB20 isolate at 0.1 ug/ml after 2 weeks. The class given is functional.
For series [31], the system named is Mycobacterium tuberculosis. Put plainly: Antimicrobial activity against Mycobacterium tuberculosis TB20 isolate at 0.1 ug/ml after 3 weeks. The class given is functional.
The test system of series [32] is Mycobacterium tuberculosis. As to the kind of experiment: Antimicrobial activity against Mycobacterium tuberculosis TB20 isolate at 0.1 ug/ml after 4 weeks. The class given is functional.
In series [33] the test system is Mycobacterium tuberculosis. Put plainly: Antimicrobial activity against Mycobacterium tuberculosis TB20 isolate at 0.4 ug/ml after 1 week. The class given is functional.
The subject of series [34] is Mycobacterium tuberculosis. As to the kind of experiment: Antimicrobial activity against Mycobacterium tuberculosis TB20 isolate at 0.4 ug/ml after 2 weeks. The class given is functional.
Series [35] deals with Mycobacterium tuberculosis. Put plainly: Antimicrobial activity against Mycobacterium tuberculosis TB20 isolate at 0.4 ug/ml after 3 weeks. The class given is functional.
The test system of series [36] is Mycobacterium tuberculosis. Put plainly: Antimicrobial activity against Mycobacterium tuberculosis TB20 isolate at 0.4 ug/ml after 4 weeks. The class given is functional.
A short description of series [37]: Stability in BACTEC medium at 37 degC upto 4 weeks. The class given is physicochemical. The settings on record: 672 h.

On to `CO[C@H]1/C=C/O[C@@]2(C)Oc3c(C)c(O)c4c(O)c(c(/C=N/N5CCN(C)CC5)c(O)c4c3C2=O)NC(=O)/C(C)=C\C=C\[C@H](C)[C@H](O)[C@@H](C)[C@@H](O)[C@@H](C)[C@H](OC(C)=O)[C@@H]1C` [RIFAMPIN], for which the CFU in [1], in [2], in series [3] and in series [4] was 0 mL⁻¹ each time.

As for `NNC(=O)c1ccncc1` [ISONIAZID], the CFU in series [5] was 1.2 10^3/ml; in series [6], 3.1 10^3/ml; in [7], 2.4 10^4/ml; in series [8] it was 1.22 10^5/ml; in series [9], 55 mL⁻¹; in series [10], 0 mL⁻¹. Moreover, the CFU in series [11] was 5.6 10^2/ml; in series [12], 1.2 10^4/ml; in series [13] it was 1.1 10^5/ml; in series [14], 25 mL⁻¹; in series [15] it was 1.1 10^3/ml; in [16], 4.8 10^3/ml. Besides, the CFU was 7 10^3/ml in series [17]; 0 mL⁻¹ in series [18]; 2 10^2/ml in series [19]; 3.4 10^4/ml in series [20]; 4.8 10^4/ml in series [21]; 3.6 10^3/ml in [22]. The CFU in series [23] is recorded as 1.45 10^4/ml; in series [24], 1.32 10^4/ml; in series [25], 7.6 10^3/ml; in series [26], 1.7 10^5/ml; in [27], 2.5 10^4/ml; in series [28] it was 7.9 10^4/ml. Besides, the CFU in series [29] is 2.4 10^2/ml; in series [30] it was 1.4 10^4/ml; in [31], 1.6 10^4/ml; in [32], 2.5 10^4/ml; in series [33], 40 mL⁻¹; in series [34], 1.3 10^4/ml. Besides, the CFU in [35] was 7.5 10^4/ml; in series [36], 8 10^4/ml. Besides, the Stability result in [37] was “Stable”.
